What all share (experiment): relative viability (nuclei count vs DMSO), 5 days (fraction); higher = more cells survive
Compound in assay [1]: C1CSC2=C(C(=O)N1)SC3=C2C=C(C=C3)O [kb NB 142-70] + C[C@@H](Oc1cc(-c2cnn(C3CCNCC3)c2)cnc1N)c1c(Cl)ccc(F)c1Cl [Crizotinib] (partner 1 µM)
In short, it runs like this: (§1)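 Relative viability equals treated-well nuclei counts divided by vehicle-well nuclei counts. Counts came from 4× images of lung cancer cell lines grown in 1536-well plates for 5 days after pin-tool dosing on the day after seeding. Dosing used one drug alone or a fixed anchor-drug dose plus five library-drug doses (not always all listed) in √10 steps, and values are medians of duplicate plates.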

Compound in assay [2]: C1CSC2=C(C(=O)N1)SC3=C2C=C(C=C3)O [kb NB 142-70] + C[C@]1(O)C[C@@H](c2nc(-c3ccc4ccc(-c5ccccc5)nc4c3)c3c(N)nccn32)C1 [Linsitinib] (partner 1 µM)
In short, it runs like this:
as §1

Compound in assay [3]: C1CSC2=C(C(=O)N1)SC3=C2C=C(C=C3)O [kb NB 142-70] + CS(=O)(=O)N1CCN(Cc2cc3nc(-c4cccc5[nH]ncc45)nc(N4CCOCC4)c3s2)CC1 [Pictilisib] (partner 1 µM)
In short, it runs like this: as §1

Compound in assay [4]: C1CSC2=C(C(=O)N1)SC3=C2C=C(C=C3)O [kb NB 142-70] + Cc1cc(Nc2cc(N3CCN(C)CC3)nc(Sc3ccc(NC(=O)C4CC4)cc3)n2)n[nH]1 [Tozasertib] (partner 0.1 µM)
In short, it runs like this:
as §1

Compound in assay [5]: NCC(=O)Nc1ccc(-n2nc(C(F)(F)F)cc2-c2ccc3c(ccc4ccccc43)c2)cc1 + CC1(C)CCC(c2ccc(Cl)cc2)=C(CN2CCN(c3ccc(C(=O)NS(=O)(=O)c4ccc(N[C@H](CCN5CCOCC5)CSc5ccccc5)c(S(=O)(=O)C(F)(F)F)c4)cc3)CC2)C1 [Navitoclax] (partner 0.5 µM)
In short, it runs like this: as §1

Compound in assay [6]: C1CSC2=C(C(=O)N1)SC3=C2C=C(C=C3)O [kb NB 142-70] + COc1cccc2cc(-c3nc([C@H]4CC[C@H](C(=O)O)CC4)n4ncnc(N)c34)[nH]c12 [OSI-027] (partner 0.5 µM)
In short, it runs like this:
as §1

Take NCI-H647: the relative viability in assay [1] (first compound 0.1 µM) is 1.08; in assay [1] (first compound 1 µM) it was 1.27; in assay [1] (first compound 3.162 µM) it was 1.12; in assay [2] (first compound 0.1 µM) it was 1.1; in assay [2] (first compound 1 µM) it was 1.2; in assay [2] (first compound 3.162 µM), 1.17. The relative viability came to 0.497 in assay [3] (first compound 0.1 µM); 0.474 in assay [3] (first compound 1 µM); 0.408 in assay [3] (first compound 3.162 µM); 0.274 in assay [4] (first compound 0.1 µM); 0.332 in assay [4] (first compound 1 µM); 0.426 in assay [4] (first compound 3.162 µM). For the same cell line, the relative viability in assay [5] (first compound 0.02 µM) turned out to be 1.02; in assay [5] (first compound 0.06325 µM), 1.02; in assay [5] (first compound 0.2 µM) it was 1.23; in assay [5] (first compound 0.6325 µM), 1.03; in assay [5] (first compound 2 µM) it was 1.01; in assay [6] (first compound 0.1 µM), 0.575. The relative viability in assay [6] (first compound 1 µM) came to 0.568; in assay [6] (first compound 3.162 µM) it was 0.601.

As for NCI-H727, the relative viability was determined as 0.752 in assay [1] (first compound 0.1 µM); 1.06 in assay [1] (first compound 1 µM); 0.592 in assay [1] (first compound 3.162 µM); 0.356 in assay [2] (first compound 0.1 µM); 0.323 in assay [2] (first compound 1 µM); 0.28 in assay [2] (first compound 3.162 µM). The relative viability in assay [3] (first compound 0.1 µM) was determined as 0.425; in assay [3] (first compound 1 µM), 0.469; in assay [3] (first compound 3.162 µM), 0.346; in assay [4] (first compound 0.1 µM), 0.607; in assay [4] (first compound 1 µM), 0.541; in assay [4] (first compound 3.162 µM) it was 0.514. Further, the relative viability in assay [5] (first compound 0.02 µM) was 0.464; in assay [5] (first compound 0.06325 µM), 0.568; in assay [5] (first compound 0.2 µM), 0.52; in assay [5] (first compound 0.6325 µM), 0.474; in assay [5] (first compound 2 µM), 0.469; in assay [6] (first compound 0.1 µM), 0.716. Moreover, the relative viability in assay [6] (first compound 1 µM) amounted to 0.583; in assay [6] (first compound 3.162 µM) it was 0.67.

For NCI-H838, the relative viability in assay [1] (first compound 0.1 µM) stood at 0.782; in assay [1] (first compound 1 µM), 0.914; in assay [1] (first compound 3.162 µM), 0.877; in assay [2] (first compound 0.1 µM), 0.993; in assay [2] (first compound 1 µM) it was 1.08; in assay [2] (first compound 3.162 µM) it was 0.98. The relative viability in assay [3] (first compound 0.1 µM) amounted to 0.444; in assay [3] (first compound 1 µM) it was 0.447; in assay [3] (first compound 3.162 µM), 0.424; in assay [4] (first compound 0.1 µM), 0.29; in assay [4] (first compound 1 µM) it was 0.249; in assay [4] (first compound 3.162 µM) it was 0.271. Further, the relative viability in assay [5] (first compound 0.02 µM) was 1.19; in assay [5] (first compound 0.06325 µM), 1.12; in assay [5] (first compound 0.2 µM) it was 1.34; in assay [5] (first compound 0.6325 µM) it was 1; in assay [5] (first compound 2 µM), 1; in assay [6] (first compound 0.1 µM) it was 0.369. The relative viability in assay [6] (first compound 1 µM) was 0.386; in assay [6] (first compound 3.162 µM) it was 0.331.

As for NCI-H1355, the relative viability amounted to 1.02 in assay [1] (first compound 0.1 µM); 1.03 in assay [1] (first compound 1 µM); 1.05 in assay [1] (first compound 3.162 µM); 0.781 in assay [2] (first compound 0.1 µM); 0.835 in assay [2] (first compound 1 µM); 0.757 in assay [2] (first compound 3.162 µM). For the same cell line, the relative viability turned out to be 0.491 in assay [3] (first compound 0.1 µM); 0.428 in assay [3] (first compound 1 µM); 0.425 in assay [3] (first compound 3.162 µM); 0.577 in assay [4] (first compound 0.1 µM); 0.542 in assay [4] (first compound 1 µM); 0.428 in assay [4] (first compound 3.162 µM). The relative viability in assay [5] (first compound 0.02 µM) is 0.921; in assay [5] (first compound 0.06325 µM), 0.895; in assay [5] (first compound 0.2 µM), 1; in assay [5] (first compound 0.6325 µM), 0.999; in assay [5] (first compound 2 µM), 0.978; in assay [6] (first compound 0.1 µM) it was 0.44. Besides, the relative viability in assay [6] (first compound 1 µM) turned out to be 0.38; in assay [6] (first compound 3.162 µM), 0.378.

On to NCI-H1437, for which the relative viability is 1.01 in assay [1] (first compound 0.1 µM); 0.997 in assay [1] (first compound 1 µM); 0.946 in assay [1] (first compound 3.162 µM); 1.15 in assay [2] (first compound 0.1 µM); 1.1 in assay [2] (first compound 1 µM); 1.07 in assay [2] (first compound 3.162 µM). The relative viability was determined as 0.406 in assay [3] (first compound 0.1 µM); 0.459 in assay [3] (first compound 1 µM); 0.37 in assay [3] (first compound 3.162 µM); 0.407 in assay [4] (first compound 0.1 µM); 0.421 in assay [4] (first compound 1 µM); 0.446 in assay [4] (first compound 3.162 µM). Moreover, the relative viability stood at 1.08 in assay [5] (first compound 0.02 µM); 1.12 in assay [5] (first compound 0.06325 µM); 1.11 in assay [5] (first compound 0.2 µM); 1.12 in assay [5] (first compound 0.6325 µM); 1.11 in assay [5] (first compound 2 µM); 0.908 in assay [6] (first compound 0.1 µM). Further, the relative viability in assay [6] (first compound 1 µM) was 0.968; in assay [6] (first compound 3.162 µM), 0.921.

Turning to NCI-H1651, the relative viability was found to be 0.908 in assay [1] (first compound 0.1 µM); 0.842 in assay [1] (first compound 1 µM); 0.879 in assay [1] (first compound 3.162 µM); 1.04 in assay [2] (first compound 0.1 µM); 0.929 in assay [2] (first compound 1 µM); 0.376 in assay [2] (first compound 3.162 µM). Moreover, the relative viability came out at 0.563 in assay [3] (first compound 0.1 µM); 0.497 in assay [3] (first compound 1 µM); 0.344 in assay [3] (first compound 3.162 µM); 0.678 in assay [4] (first compound 0.1 µM); 0.748 in assay [4] (first compound 1 µM); 0.311 in assay [4] (first compound 3.162 µM). Moreover, the relative viability in assay [5] (first compound 0.02 µM) came out at 1.06; in assay [5] (first compound 0.06325 µM), 1.11; in assay [5] (first compound 0.2 µM) it was 1.13; in assay [5] (first compound 0.6325 µM), 0.998; in assay [5] (first compound 2 µM), 1.01; in assay [6] (first compound 0.1 µM) it was 0.725. The relative viability in assay [6] (first compound 1 µM) amounted to 0.657; in assay [6] (first compound 3.162 µM), 0.471.

As for NCI-H1666, the relative viability turned out to be 1.09 in assay [1] (first compound 0.1 µM); 0.871 in assay [1] (first compound 1 µM); 0.676 in assay [1] (first compound 3.162 µM); 0.858 in assay [2] (first compound 0.1 µM); 0.831 in assay [2] (first compound 1 µM); 0.483 in assay [2] (first compound 3.162 µM). Besides, the relative viability in assay [3] (first compound 0.1 µM) is 0.405; in assay [3] (first compound 1 µM) it was 0.346; in assay [3] (first compound 3.162 µM) it was 0.204; in assay [4] (first compound 0.1 µM) it was 0.642; in assay [4] (first compound 1 µM), 0.614; in assay [4] (first compound 3.162 µM), 0.479. Besides, the relative viability in assay [5] (first compound 0.02 µM) worked out at 1.14; in assay [5] (first compound 0.06325 µM) it was 0.788; in assay [5] (first compound 0.2 µM), 1.11; in assay [5] (first compound 0.6325 µM), 0.913; in assay [5] (first compound 2 µM) it was 1.01; in assay [6] (first compound 0.1 µM), 0.786. Also, the relative viability in assay [6] (first compound 1 µM) and in assay [6] (first compound 3.162 µM) was 0.875 in each case.

(Values after the supplement of paper PMC10307832.)
